Counter-ions that a name gives are not always drawn. Like-named read-outs stand apart in the source and are kept apart here.
Legend:
Format in all cases: biochemical
BuChE from human serum = molecular target: T1, BuChE from human serum (Homo sapiens, UniProt P06276); experiment: Inhibition of butyrylcholinesterase activity in vitro (Ellman, stopped time assay); parameters: ki (bimolecular rate constant): unit not given here
T1 construct: BuChE from human serum (C-9971); purchased Sigma-Aldrich Israel C-9971; host or cells: purified from human serum
Procedure: BuChE from human serum (C-9971), butyrylthiocholine iodide (BuTh, B3253), bovine serum albumin (BSA, A-2153) 5,5′-dithiobis(2-nitrobenzoic acid) (DTNB, D8130) were obtained from Sigma-Aldrich Israel. BuChE was dissolved in phosphate buffer pH 8.0 containing 0.01% sodium azide (NaAz) and 1 mM EDTA and diluted to give a concentration of 35.9 units/ml. This solution was divided into aliquots of 0.5 ml, which were stored at −70° C. until use.
The inhibitory activity against BuChE was determined by the method of Ellmann et al. (Biochemical Pharmacology, 1961 (7) 88-95) using BuTh as a substrate. To characterize the carbamoylation step, a traditional stopped time assay was performed, in which BuChE was incubated at 37° C. with a minimum of 5 different concentrations of inhibitor in the assay buffer, and aliquots were transferred to an ELISA multiscan microplate reader (Labsystems) at various times for the determination of residual BuChE activity, with Ascent PC® software. The rate of reaction was measured at 412λ at 37° C. in 0.2 ml wells containing […] 0.023 units per ml, DTNB 0.4-0.5 mM, AcTh 0.50 or 1 mM and BSA (0.05%) in 50 mM phosphate buffer as described above. For all compounds measurements were made every 2 min for 15 min and then every 15 min for 3 hr.
The inhibition of BuChE by carbamates involves the formation of a reversible complex (EOH•CX), followed by carbamoylation of the enzyme to form (EOC) and a leaving group (HX). The carbamoylated enzyme is then hydrolyzed by water to regenerate the free enzyme (EOH). The formation of the reversible complex is represented by the equilibrium constant: KD. For the carbamoylation phase of the inhibition process the unimolecular rate constant is represented by kmax, and the bimolecular rate constant by ki.

Recombinant human AChE = molecular target: T2, Recombinant human AChE (Homo sapiens, UniProt P22303); experiment: Inhibition of acetylcholinesterase activity in vitro (Ellman, stopped time assay); parameters: ki (bimolecular rate constant): unit not given here
T2 construct: purchased Sigma-Aldrich Israel C-1682
Procedure: Recombinant human AChE (C-1682), acetylthiocholine iodide (AcTh, A5771), bovine serum albumin (BSA, A-2153), and 5,5′-dithiobis(2-nitrobenzoic acid) (DTNB, D8130) were obtained from Sigma-Aldrich Israel. […] AChE was dissolved in phosphate buffer pH 8.0 containing 0.01% sodium azide NaAz and 1 mM EDTA and diluted to give a concentration of 15 units/ml. This solution was divided into aliquots of 0.5 ml, which were stored at −70° C. until use.
The inhibitory activity against AChE was determined by the method of Ellmann et al. (Biochemical Pharmacology, 1961 (7) 88-95) using AcTh as a substrate. To characterize the carbamoylation step, a traditional stopped time assay was performed, in which AChE was incubated at 37° C. with a minimum of 5 different concentrations of inhibitor in the assay buffer, and aliquots were transferred to an ELISA multiscan microplate reader (Labsystems) at various times for the determination of residual AChE activity, with Ascent PC software. The rate of reaction was measured at 412λ at 37° C. in 0.2 ml wells containing AChE 0.023 units per ml, DTNB 0.4-0.5 mM, AcTh 0.50 or 1 mM and BSA (0.05%) in 50 mM phosphate buffer as described above. Measurements were made every 5 min for up to 5 hours.
The inhibition of AChE by carbamates involves the formation of a reversible complex (EOH•CX), followed by carbamoylation of the enzyme to form (EOC) and a leaving group (HX). The carbamoylated enzyme is then hydrolyzed by water to regenerate the free enzyme (EOH).
The formation of the reversible complex is represented by the equilibrium constant: KD. For the carbamoylation phase of the inhibition process the unimolecular rate constant is represented by kmax, and the bimolecular rate constant by ki.

MAO-B = molecular target: T3, MAO-B (Rattus norvegicus, UniProt P19643); experiment: Inhibition of MAO activity in vitro (PEA substrate)
T3 construct: from tissue; host or cells: brain, liver and intestine (duodenum) of dosed rats
T3 sequence (P19643 1-520): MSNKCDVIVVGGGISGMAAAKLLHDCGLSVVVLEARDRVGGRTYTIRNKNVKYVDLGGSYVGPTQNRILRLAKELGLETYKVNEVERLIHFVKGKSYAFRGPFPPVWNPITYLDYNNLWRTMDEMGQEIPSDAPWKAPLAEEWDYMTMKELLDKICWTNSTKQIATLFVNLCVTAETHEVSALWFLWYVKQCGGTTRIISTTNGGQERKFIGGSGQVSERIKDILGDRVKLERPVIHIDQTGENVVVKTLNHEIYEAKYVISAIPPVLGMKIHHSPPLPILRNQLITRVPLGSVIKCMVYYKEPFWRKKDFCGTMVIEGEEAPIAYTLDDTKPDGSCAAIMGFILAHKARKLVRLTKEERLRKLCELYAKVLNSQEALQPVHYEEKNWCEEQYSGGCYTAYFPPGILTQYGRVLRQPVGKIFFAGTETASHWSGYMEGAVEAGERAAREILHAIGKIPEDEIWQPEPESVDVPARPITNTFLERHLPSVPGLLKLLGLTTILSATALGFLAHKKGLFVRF
Procedure: The MAO enzyme source was a homogenate of rat brain in 0.3M sucrose. The homogenate was diluted appropriately, and pre-incubated with serial dilutions of test compounds—diluted in phosphate buffer containing clogyline when 2-phenylethylamine (PEA) is the substrate, and diluted in phosphate buffer containing selegiline when 5-hydroxytryptamine (5-HT) is the substrate—for 60 minutes at 37° C. 14C-Labeled substrates (PEA for MAO-B determination and 5-HT for MAO-A determination) were then added, and the incubation continued for a further 20 minutes (PEA) or 30 minutes (5-HT). Substrate concentrations used were 10 μM (PEA) and 100 uM (5-HT). Enzyme concentration was chosen so that not more than 10% of the substrate was metabolized during the course of the reaction. Deaminated products were extracted into toluene-ethyl acetate (1:1 v/v) containing 0.4% (w/v) 2,5-diphenyloxazole (ppo) prior to determination by liquid scintillation counting. Radioactivity in the eluate indicated the production of neutral and acidic metabolites formed as a result of MAO activity. Activity of MAO in the sample was expressed as a percentage of control activity in the absence of inhibitor after subtraction of appropriate blank values. The activity determined using PEA as substrate is referred to as MAO-B, and that determined using 5-HT as MAO-A.
Concentrations of each inhibitor producing 50% inhibition of substrate metabolism (IC50) were calculated from the inhibition curves, and are shown in Table 1.

T2 sequence (P22303 32-614): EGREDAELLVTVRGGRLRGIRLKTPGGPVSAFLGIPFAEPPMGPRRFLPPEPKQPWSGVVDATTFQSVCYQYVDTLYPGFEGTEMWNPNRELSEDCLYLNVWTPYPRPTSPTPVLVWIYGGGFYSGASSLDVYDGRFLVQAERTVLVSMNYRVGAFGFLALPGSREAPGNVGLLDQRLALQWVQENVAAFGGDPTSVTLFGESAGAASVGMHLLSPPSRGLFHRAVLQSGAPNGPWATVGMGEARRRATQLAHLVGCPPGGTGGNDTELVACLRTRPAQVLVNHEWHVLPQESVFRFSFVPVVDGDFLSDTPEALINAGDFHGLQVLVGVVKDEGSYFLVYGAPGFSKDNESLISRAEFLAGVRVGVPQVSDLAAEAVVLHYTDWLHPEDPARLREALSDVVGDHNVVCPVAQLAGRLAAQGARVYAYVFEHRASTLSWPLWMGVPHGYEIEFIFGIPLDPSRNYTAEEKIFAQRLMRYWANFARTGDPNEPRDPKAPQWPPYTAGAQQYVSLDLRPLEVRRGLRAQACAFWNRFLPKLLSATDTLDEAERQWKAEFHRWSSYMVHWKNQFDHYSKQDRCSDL
T1 sequence (P06276 29-602): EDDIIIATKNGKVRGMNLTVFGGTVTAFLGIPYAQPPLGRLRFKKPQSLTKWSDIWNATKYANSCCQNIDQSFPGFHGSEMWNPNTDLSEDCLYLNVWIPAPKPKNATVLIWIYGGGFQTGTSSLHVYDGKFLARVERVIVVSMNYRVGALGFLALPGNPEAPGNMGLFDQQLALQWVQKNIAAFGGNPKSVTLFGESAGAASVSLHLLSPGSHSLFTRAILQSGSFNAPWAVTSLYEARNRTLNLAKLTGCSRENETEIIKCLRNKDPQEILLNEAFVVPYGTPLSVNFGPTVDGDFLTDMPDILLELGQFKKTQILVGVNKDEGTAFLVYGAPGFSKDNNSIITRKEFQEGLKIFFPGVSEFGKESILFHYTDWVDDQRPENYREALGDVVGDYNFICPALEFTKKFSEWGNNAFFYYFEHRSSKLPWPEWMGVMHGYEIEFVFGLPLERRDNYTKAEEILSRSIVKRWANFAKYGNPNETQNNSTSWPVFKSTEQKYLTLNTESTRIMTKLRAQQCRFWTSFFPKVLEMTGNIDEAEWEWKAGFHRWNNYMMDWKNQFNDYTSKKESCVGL

Structure (SMILES) | Kd (BuChE from human serum) | inhibition of butyrylcholinesterase, in words (BuChE from human serum) | ki (bimolecular rate constant) (BuChE from human serum; BuChE, 37° C.) | kmax (unimolecular carbamoylation rate constant) (BuChE from human serum; BuChE, 37° C.) | inhibition of acetylcholinesterase, in words (Recombinant human AChE) | kmax (unimolecular carbamoylation rate constant) (Recombinant human AChE; AChE, 37° C.) | IC50 (MAO-B) | Kd (BuChE from human serum; BuChE, 37° C., read-out: KD (equilibrium constant of reversible complex)) | ki (bimolecular rate constant) (Recombinant human AChE; AChE, 37° C.) | Kd (Recombinant human AChE; AChE, 37° C., read-out: KD (equilibrium constant of reversible complex)) | IC50 (MAO-B; rat brain homogenate, PEA 10 μM, 60 minutes pre-incubation at 37° C., read-out: IC50 for MAO-B inhibition)
CNC(=O)Oc1ccc2c(c1)[C@H](N)CC2 [R-MCAI, Methyl-carbamic acid 3-R-amino-indan-5-yl ester hydrochloride] | 36 ± 5 µM | potent inhibitors | 14.5 ± 0.42 | 0.516 ± 0.050 min⁻¹ | potent inhibitors | 1.63 min⁻¹ | > 1000 µM |  |  |  | 
C#CCN[C@@H]1CCc2ccc(OC(=O)NC)cc21 [R-MCPAI, Methyl-carbamic acid 3-R-(prop-2-ynylamino)-indan-5-yl ester hydrochloride] | 21 ± 2 µM | potent inhibitors | 31.3 ± 2.0 | 0.65 ± 0.03 min⁻¹ | potent inhibitors | 0.435 min⁻¹ | 42 µM |  |  |  | 
C#CCN[C@@H]1CCc2ccc(OC(=O)N(CC)CO)cc21 [R-HCPAI, Ethyl-hydroxymethyl-carbamic acid 3-R-(prop-2-ynylamino)-indan-5-yl ester fumarate (2:1)] |  | weak inhibitor | 0.936 ± 0.06 | 0.104 ± 0.043 min⁻¹ | weak inhibitor | 0.033 min⁻¹ |  | 111 ± 50 µM | 0.106 ± 0.008 | 306 µM | 599 µM
